Reference: patent US20200404909A1, “Fatty acid derivatives for use as herbicides” (Clariant International Ltd., priority 2018, published 2020)

Legend:
[1] = Spray liquids in water: appearance and stability after 24 h; type: physicochemical; conditions: for Appearance: spray liquid in water, after 24 h
Procedure: The inventive compounds were used to make spray liquids at relevant use concentration. These spray liquids are produced by mixing the various test substances in water, and the appearance and stability of the spray liquid were assessed after 24 h.
The inventive compounds can be used as 100% substances without need for additional additives or formulation aids to obtain stable spray liquids. They are either water soluble and form clear homogeneous spray liquid or self-emulsifying in the spray liquid and form cloudy homogeneous emulsions that are stable over 24 h. […] Stable spray liquids can only be achieved with pelargonic acid when they are formulated with appropriate emulsifiers and other formulation aids like in the commercial benchmark Vorox.

[2] = test system: monocotyledonous and dicotyledonous harmful plants (ABUTH, ALOMY, AMARE, DIGSA, ERICA, LOLPE, SOLNI, VIOAR); assay: Greenhouse trials, post emergence herbicidal activity (percent control); type: in vivo; conditions: 5-20% w/v of applied substances, spray volume 500-1000 liters per hectare, broadcast foliar method
Source text: Standard post emergence herbicide application procedures were used, as described below, to apply inventive compounds and formulations listed in the tables 1 and 2, as well as the reference materials.
Seed of monocotyledonous and dicotyledonous harmful plants such as Abutilon theophrasti (ABUTH), Alopecurus myosuroides (ALOMY), Amaranthus retroflexus (AMARE), Digitaria Sanguinalis (DIGSA), Erigeron canadensis (ERICA), Lolium perenne (LOLPE), Solanun nigrum (SOLNI), Viola arvensis (VIOAR) were sowed in 18 cm^2 pots. The plants were placed in a greenhouse under controlled environmental conditions, and sub-irrigation. About one week after emergence, seedlings were thinned as needed, including removal of any unhealthy or abnormal plants, to create a uniform series of test pots.
The plants were maintained for the duration of the test in the greenhouse, where they received a mean of 70 μmol m^−2 s^−1 of light per day/night. Temperatures averages about 24° C. during the day and about 20° C. during the night. Plants were sub-irrigated throughout the test to ensure adequate soil moisture levels.
Pots were assigned to different treatment in a randomized experimental design. A set of pots was left untreated as a reference against which effects of the treatments could later be evaluated. Applications of tested formulations were made in a spray cabin model SPK B CT02 designed by CheckTec using the following parameters: • nozzle Lechler LU-120-08, 1000 L/ha, 3 bars, 0.56 m/s • nozzle Lechler LU-120-06, 500 L/ha, 3 bars, 0.7 m/s.
The distance of the nozzle from the plants was between 50 to 53 cms.
After treatment, pots were returned to the greenhouse until ready for evaluation (6 hours after treatment (6HAT), 1 day after treatment (1DAT), and 2 days after treatment (2DAT).
For evaluation of herbicidal effectiveness, all plants in the test were examined by a single technician, who recorded percent control, a visual measurement of the effectiveness of each treatment by comparison with untreated plants. […] The reported % control values represent the average for all replicates of each treatment.

[3] = Volatility from spray deposit on non-permeable leaf cuticles; type: physicochemical; conditions: pelargonic acid 30 g/L, Vorox 130 g/L
Procedure: (§1) The volatility of the test substances from the spray deposit was measured time dependent. All measurements have been carried out using a concentration of 50 g/L of the test substances in the application solution. The reference pelargonic acid was used at a concentration of 30 g/L and the commercial benchmark Vorox was applied at a concentration of 130 g/L. The […] drop volumes of 10 μl of the spray liquids which amounts to 500 μg of test substance were then applied on two different substrates. An inert wettable synthetic substrates and non-permeable leaf cuticles were used as substrates. […] After evaporation of drop water, the substrates were weighed to obtain the initial weight and placed under a sealed box with defined air suction output volume of 30 m^3/h. The volatility has been determined after the desired measurement time of 4 h, 24 h and 48 h by weighing of the substrates to obtain the remaining weight of the test substances. The fraction of remaining test substance in % is obtained by the ratio of remaining test substance compared to the initial weight of test substance. The volatilized amount was calculated by subtraction of the remaining test substance of the initial applied amount. The volatilized fraction of test substance in % is obtained by the ratio of volatilized test substance compared to the initial weight of test substance. A substrate without test substance is used as reference to account for changes in environmental conditions such as humidity. Concentrations used are based on ca. 3% pelargonic acid equivalent

[4] = Volatility from spray deposit on inert wettable synthetic substrates; type: physicochemical; conditions: pelargonic acid 30 g/L, Vorox 130 g/L
Procedure: as §1

[5] = test system: Fruit trees (apple trees); assay: Plant growth regulator activity: blossom thinning in orchards (greenhouse and field trial); type: in vivo; conditions: A1 diluted in water 1-10%, about 2 to about 15 liters per apple tree
Source text: Fruit trees were sprayed with substance A1 (Pelargonic acid 6 EO ester methyl ether), several days before the expected full blossoming in the greenhouse, and also in a field trial to test the blossom thinning, which is used to increase the fruit production.
Plots (3 trees per plot in field trials; 1 tree per plot in greenhouse) were assigned to different treatments in a randomized experimental design. One plot was left untreated as a reference against which effects of the treatments could later be evaluated.
The test substance A1 was diluted in water in a range of 1-10% and the spray solution was sprayed in an amount of about 2 to about 15 liters per apple tree (height: about 2-2.5 m, width: about 1-1.5 m). The Application was made with a high-pressure power backpack sprayer manufactured by SOLO® Kleinmotoren GmbH.
The treated trees were evaluated regarding flower thinning effect, but also regarding undesired effects by chemical injury such as leaf browning, leaf malformation, etc.

[6] = pH 4, 4 h, test substances 50 g/L
[7] = pH 4, 24 h, test substances 50 g/L
[8] = pH 4, 48 h, test substances 50 g/L

Molecule | herbicidal activity against a plurality of the harmful plants [2] | Volatilized fraction 4 h [3, 6] [%] | Volatilized fraction 24 h [3, 7] [%] | Volatilized fraction 48 h [3, 8] [%] | Volatilized fraction 4 h [4, 6] [%] | Volatilized fraction 24 h [4, 7] [%] | Volatilized fraction 48 h [4, 8] [%] | further results
CCCCCCCCC(=O)OCCOCCOCCOCCOCCOCCOC [A1, Pelargonic acid 6 EO ester methyl ether] | moderately effective to highly effective | 1.5 | 4.8 | 5.2 | −0.2 | 0.6 | 1.2 | Appearance ([1]; amount 5.0 % by wt.): Clear solution; herbicidal activity against several, in particular three or more, of the mentioned harmful plants [2]: highly effective; undesired effects by chemical injury (leaves, branches, tree) ([5]; evaluated after treatment): without significantly harming the tree; flower thinning effect ([5]; sprayed several days before full blossoming): excellent results as flower thinning agent
CCCCCCCCC(=O)OCCOCCOCCOCCOCCOCCOCCOCCOC [A2, Pelargonic acid 8 EO ester methyl ether] | moderately effective to highly effective | 1.7 | 2.1 | 2.8 | −0.3 | 0.2 | 0.4 | Appearance ([1]; amount 0.3 % by wt.): Clear solution; Appearance ([1]; amount 5.0 % by wt.): Clear solution
CCCCCCCCC(=O)OCCOCCOCCOCCOC(C)COCCOCCOC (stereo not shown) [A3, Pelargonic acid 1 PO 6 EO ester methyl ether] | moderately effective to highly effective | – | – | – | – | – | – | –
CCCCCCCCC(=O)OC(C)COCCOCCOC (stereo not shown) [A4, Pelargonic acid 1 PO 2 EO ester methyl ether] | moderately effective to highly effective | – | – | – | – | – | – | herbicidal activity against several, in particular three or more, of the mentioned harmful plants [2]: highly effective
CCCCCCCCCCOCCOCCOCCOCCOCCOC(=O)CCCCCCCC [A9, Pelargonic acid 5 EO ester decyl ether] | moderately effective to highly effective | 8.6 | 11.7 | 22.8 | 0.3 | 1.2 | 1.9 | –
CCCCCCCCC(=O)OCCOCCOCCOCCCCCC [A10, Pelargonic acid 3 EO ester hexyl ether] | moderately effective to highly effective | 6.2 | 14.7 | 18.9 | 0.9 | 4.4 | 7.2 | –
C=CCCCCCCCC(=O)OCCOCCOCCOCCOCCOCCOC [A11, Dec-9-enoic acid 6 EO ester methyl ether] | moderately effective to highly effective | – | – | – | – | – | – | –
CC(CC(=O)O)CC(C)(C)C (stereo not shown) [A13, 3,5,5-trimethylhexanoic acid] | moderately effective to highly effective | – | – | – | – | – | – | –
CCCCCCCCCCC(=O)OCCOCCOCCOCCOCCOCCOC [A15, Undecanoic acid 6 EO ester methyl ether] | moderately effective to highly effective | – | – | – | – | – | – | –
CCCCCCCCC(=O)OCCOCCOCCOCCOCCOCCOCC [A16, Pelargonic acid 6 EO ester ethyl ether] | moderately effective to highly effective | – | – | – | – | – | – | –
CCCCCCCCC(=O)OCCOCCOCCOCCOCCOCCOC(=O)CCCCCCCC [A17, Pelargonic acid 6 EO diester, reference compound] | – | 0.6 | 1.5 | 0.6 | 0.6 | 1.0 | 1.3 | –
CCCCCCCCC(=O)OCCOCCOCCOCCOCCOCCOCCOCCOC(=O)CCCCCCCC [A18, Pelargonic acid 8 EO diester, reference compound] | – | 0.6 | 1.7 | 4.0 | 0.5 | 0.7 | 0.9 | –
CCCCCCCCC(=O)O [Pelargonic acid, reference compound] | moderately effective to highly effective | 55.7 | 78.9 | 80.6 | 3.9 | 19.1 | 35.2 | stability of spray liquid ([1]; 100% substances in water without additional additives or formulation aids): phase separate immediately; Appearance ([1]; amount 0.3 % by wt.): 2 clear phases; Appearance ([1]; amount 5.0 % by wt.): 2 clear phases; Volatilized fraction 4 h ([3]; pH 7, 4 h): 29.2%; Volatilized fraction 24 h ([3]; pH 7, 24 h): 33.8%; Volatilized fraction 48 h ([3]; pH 7, 48 h): 35.3%; Volatilized fraction 4 h ([4]; pH 7, 4 h): 7.3%; Volatilized fraction 24 h ([4]; pH 7, 24 h): 21.3%; Volatilized fraction 48 h ([4]; pH 7, 48 h): 27.9%
C8/C10 fatty acid 4 EO ester methyl ether [A5] | moderately effective to highly effective | – | – | – | – | – | – | –
C8/C10 fatty acid 6 EO ester methyl ether [A6] | moderately effective to highly effective | – | – | – | – | – | – | Appearance ([1]; amount 5.0 % by wt.): Clear solution
C12/C14 fatty acid 3 EO ester methyl ether [A7] | moderately effective to highly effective | – | – | – | – | – | – | –
C12/C14 fatty acid 5 EO ester methyl ether [A8] | moderately effective to highly effective | – | – | – | – | – | – | –
Dodec-9-enoic acid 3 EO ester methyl ether [A12] | moderately effective to highly effective | – | – | – | – | – | – | –
Dodecanoic acid 6 EO ester methyl ether [A14] | moderately effective to highly effective | – | – | – | – | – | – | –
